Results taken from article PMC10897476, “Pyridylpiperazine efflux pump inhibitor boosts in vivo antibiotic efficacy against K. pneumoniae” (EMBO Molecular Medicine, 2023).
Values joined by “and” are separate entries in the source; they are usually repeats but may differ in a detail not shown here. Identical values can stand only once. Where a SMILES comes first, the peptide text is derived from it.

Legend:
Type in all cases: cell-based, Klebsiella pneumoniae
[1] = tested on: K. pneumoniae RamR^mut (K124*stop); experiment: Checkerboard assay levofloxacin x EPI, RamR mutant; conditions: for checkerboard growth readout: ATCC43816 ramRmut, levofloxacin 0 ng/mL
Method: (§1) MIC experiments were carried out according to the CLSI guidelines (CLSI [2023]). Overnight cultures were diluted to an OD600 = 0.001 in CAMHB followed by addition of efflux pump inhibitors (EPIs) at a final concentration of 100 µM. […] Plates were incubated at 37 °C for up to 20 h. Bacterial viability was evaluated using the resazurin microtitre assay (REMA) and measured by fluorescence using a Tecan Spaert multimode plate reader (Ex: 530 nm Em: 590 nm). MICs were defined as the concentration that prevented 90% of resazurin turnover compared to the non-treated bacteria.
(§2) Bacterial suspensions, incubation and plate readouts were carried out as described above.

[2] = tested on: K. pneumoniae AcrB^V448E; experiment: MIC of antibiotics with and without EPI (REMA), AcrB V448E mutant; conditions: K. pneumoniae-AcrB^V448E, Table 2
How it was run: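 K. pneumoniae ATCC 43816 carrying single chromosomal acrB or ramR mutations introduced by allelic exchange, diluted to OD600 = 0.001 in CAMHB with EPI at final 100 µM. Incubated 37 °C up to 20 h; viability by resazurin fluorescence (Ex 530/Em 590 nm).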

[3] = tested on: K. pneumoniae ATCC 43816 (WT); experiment: Checkerboard assay levofloxacin x EPI, WT strain; conditions: for checkerboard growth readout: ATCC43816 WT, levofloxacin 0 ng/mL; for percentage resazurin turnover: individual replicates, listed as PABN; for Median REMA values (percentage resazurin turnover): median n=3
Method: as §1, §2

[4] = tested on: K. pneumoniae AcrB^V448E; experiment: Checkerboard assay levofloxacin x EPI, AcrB V448E mutant; conditions: for checkerboard growth readout: ATCC43816 AcrBV448E, levofloxacin 0 ng/mL; for Median REMA values / percentage resazurin turnover: Lev 0.00 ng/mL
Method: as §1, §2

[5] = tested on: K. pneumoniae AcrB^V448E RamR^mut; experiment: Checkerboard assay levofloxacin x EPI, double mutant; conditions: ATCC43816 AcrBV448E ramRmut, levofloxacin 0 ng/mL
Method: as §1, §2

NC(N)=NCCC[C@H](NC(=O)[C@@H](N)Cc1ccccc1)C(=O)Nc1ccc2ccccc2c1 [PAβN] (HELM PEPTIDE1{F.R.[c1ccc2cc(N[*:1])ccc2c1]}$$$$V2.0)
checkerboard growth readout ([1]; EPI 2.3 µM): 83
checkerboard growth readout ([1]; EPI 4.7 µM): 85
checkerboard growth readout ([1]; EPI 9.4 µM): 97
checkerboard growth readout ([1]; EPI 19 µM): 113
checkerboard growth readout ([1]; EPI 38 µM): 126
checkerboard growth readout ([1]; EPI 75 µM): 200
checkerboard growth readout ([1]; EPI 150 µM): 177
checkerboard growth readout ([1]; EPI 300 µM): 157
reversion of RamR-mediated levofloxacin resistance, in words ([1]; K. pneumoniae RamR^mut): only be partially reverted
susceptibility of the strain to antibiotic boosting by the EPI, in words [2]: remained sensitive
checkerboard growth readout ([3]; EPI 2.3 µM): 75
checkerboard growth readout ([3]; EPI 4.7 µM): 87
checkerboard growth readout ([3]; EPI 9.4 µM): 110
checkerboard growth readout ([3]; EPI 19 µM): 116
checkerboard growth readout ([3]; EPI 38 µM): 154
checkerboard growth readout ([3]; EPI 75 µM): 143
checkerboard growth readout ([3]; EPI 150 µM): 129
checkerboard growth readout ([3]; EPI 300 µM): 135
percentage resazurin turnover ([3]; Lev 0.00 ng/mL + EPI 2.34 uM): 100% and 75% and 71%
Median REMA values (percentage resazurin turnover) ([3]; Lev 0.00 ng/mL + EPI 2.34 uM): 75%
percentage resazurin turnover ([3]; Lev 0.00 ng/mL + EPI 4.69 uM): 108% and 87% and 69%
Median REMA values (percentage resazurin turnover) ([3]; Lev 0.00 ng/mL + EPI 4.69 uM): 87%
percentage resazurin turnover ([3]; Lev 0.00 ng/mL + EPI 9.38 uM): 112% and 110% and 90%
Median REMA values (percentage resazurin turnover) ([3]; Lev 0.00 ng/mL + EPI 9.38 uM): 110%
percentage resazurin turnover ([3]; Lev 0.00 ng/mL + EPI 18.75 uM): 116% and 136% and 109%
Median REMA values (percentage resazurin turnover) ([3]; Lev 0.00 ng/mL + EPI 18.75 uM): 116%
percentage resazurin turnover ([3]; Lev 0.00 ng/mL + EPI 37.50 uM): 154% and 197% and 115%
Median REMA values (percentage resazurin turnover) ([3]; Lev 0.00 ng/mL + EPI 37.50 uM): 154%
percentage resazurin turnover ([3]; Lev 0.00 ng/mL + EPI 75.00 uM): 134% and 143% and 152%
Median REMA values (percentage resazurin turnover) ([3]; Lev 0.00 ng/mL + EPI 75.00 uM): 143%
percentage resazurin turnover ([3]; Lev 0.00 ng/mL + EPI 150.00 uM): 129% and 156% and 124%
Median REMA values (percentage resazurin turnover) ([3]; Lev 0.00 ng/mL + EPI 150.00 uM): 129%
percentage resazurin turnover ([3]; Lev 0.00 ng/mL + EPI 300 uM): 162% and 135% and 125%
Median REMA values (percentage resazurin turnover) ([3]; Lev 0.00 ng/mL + EPI 300 uM): 135%
checkerboard growth readout ([4]; EPI 2.3 µM): 91
checkerboard growth readout ([4]; EPI 4.7 µM): 95
checkerboard growth readout ([4]; EPI 9.4 µM): 107
checkerboard growth readout ([4]; EPI 19 µM): 112
checkerboard growth readout ([4]; EPI 38 µM): 147
checkerboard growth readout ([4]; EPI 75 µM): 161
checkerboard growth readout ([4]; EPI 150 µM): 143
checkerboard growth readout ([4]; EPI 300 µM): 143
boosting of levofloxacin activity, in words ([4]; K. pneumoniae AcrB^V448E): maintained
Median REMA values ([4]; PABN 2.34 uM): 91%
percentage resazurin turnover ([4]; PABN 2.34 uM): 108% and 91% and 74%
Median REMA values ([4]; PABN 4.69 uM): 95%
percentage resazurin turnover ([4]; PABN 4.69 uM): 95% and 102% and 74%
Median REMA values ([4]; PABN 9.38 uM): 107%
percentage resazurin turnover ([4]; PABN 9.38 uM): 113% and 107% and 80%
Median REMA values ([4]; PABN 18.75 uM): 112%
percentage resazurin turnover ([4]; PABN 18.75 uM): 120% and 112%
Median REMA values ([4]; PABN 37.50 uM): 147%
percentage resazurin turnover ([4]; PABN 37.50 uM): 147% and 150% and 121%
Median REMA values ([4]; PABN 75.00 uM): 161%
percentage resazurin turnover ([4]; PABN 75.00 uM): 161% and 123% and 162%
Median REMA values ([4]; PABN 150.00 uM): 143%
percentage resazurin turnover ([4]; PABN 150.00 uM): 143% and 146% and 114%
Median REMA values ([4]; PABN 300 uM): 143%
percentage resazurin turnover ([4]; PABN 300 uM): 143% and 112%
checkerboard growth readout ([5]; EPI 2.3 µM): 79
checkerboard growth readout ([5]; EPI 4.7 µM): 95
checkerboard growth readout ([5]; EPI 9.4 µM): 80
checkerboard growth readout ([5]; EPI 19 µM): 121
checkerboard growth readout ([5]; EPI 38 µM): 158
checkerboard growth readout ([5]; EPI 75 µM): 211
checkerboard growth readout ([5]; EPI 150 µM): 226
checkerboard growth readout ([5]; EPI 300 µM): 191
